Results as given in ChEMBL document CHEMBL1137268, “2-Aminoquinoline melanin-concentrating hormone (MCH)1R antagonists” (Bioorg Med Chem Lett, 2006).

How the values were obtained:
[1] = target: T1, Melanin-concentrating hormone receptor 1 (Homo sapiens, UniProt Q99705); test: Displacement of 125I-[Phe13,Tyr19]-MCH from human MCH-R1
[2] = target: Melanin-concentrating hormone receptor 2 (Homo sapiens) (UniProt Q969V1); test: Inhibition of 125I-[Phe13,Tyr19]-MCHbinding to human MCH-R2; details: concentration not given here
Sequence of Melanin-concentrating hormone receptor 2 (Homo sapiens) (Q969V1 whole entry): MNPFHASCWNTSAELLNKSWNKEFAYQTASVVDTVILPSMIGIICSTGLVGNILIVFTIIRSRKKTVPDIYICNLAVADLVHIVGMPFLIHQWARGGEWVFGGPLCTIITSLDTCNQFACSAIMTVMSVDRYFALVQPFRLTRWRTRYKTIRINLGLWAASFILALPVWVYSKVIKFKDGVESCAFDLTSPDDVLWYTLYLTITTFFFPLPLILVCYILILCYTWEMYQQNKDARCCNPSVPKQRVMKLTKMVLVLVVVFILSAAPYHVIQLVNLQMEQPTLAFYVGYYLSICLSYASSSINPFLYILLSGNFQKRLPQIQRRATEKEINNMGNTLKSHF

[3] = target: T2, Melanin-concentrating hormone receptor 1 (Rattus norvegicus, UniProt P97639); test: […] of IP3-coupled mobilization of calcium in HEK293 cells expressing rat MCH-R1; assay type: functional, cell-based
T2 sequence (P97639 whole entry): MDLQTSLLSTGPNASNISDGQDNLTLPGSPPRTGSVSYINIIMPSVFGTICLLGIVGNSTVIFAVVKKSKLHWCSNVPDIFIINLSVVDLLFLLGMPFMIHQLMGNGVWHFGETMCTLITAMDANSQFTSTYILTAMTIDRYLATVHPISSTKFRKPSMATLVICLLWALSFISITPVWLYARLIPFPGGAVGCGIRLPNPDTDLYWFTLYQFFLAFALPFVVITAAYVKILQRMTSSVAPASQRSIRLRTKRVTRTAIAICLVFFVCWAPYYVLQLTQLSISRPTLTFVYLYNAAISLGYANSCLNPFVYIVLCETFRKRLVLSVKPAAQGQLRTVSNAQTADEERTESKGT

[4] = Volume of distribution in rats; assay type: ADME, organism-based; details: rat, in vivo; read-out: Vdss
[5] = Half-life in rats; assay type: ADME, organism-based; details: rat, in vivo
[6] = target: Melanin-concentrating hormone receptor 1 (Rattus norvegicus) (UniProt P97639); test: Inhibition of 125I-[Phe13,Tyr19]-MCH binding to rat MCH-R1 at 5uM
Sequence of Melanin-concentrating hormone receptor 1 (Rattus norvegicus) (P97639 whole entry): as above

[7] = Rat Clp; assay type: ADME, organism-based; details: plasma, read-out: Clp
[8] = target: T1, Melanin-concentrating hormone receptor 1; test: Inhibition of 125I-[Phe13,Tyr19]-MCH binding to human MCH-R1 at 5uM
[9] = target: T2, Melanin-concentrating hormone receptor 1; test: Displacement of 125I-[Phe13,Tyr19]-MCH from rat MCH-R1
Rattus norvegicus = species: Rattus norvegicus; test: Decreased overnight food intake in continuously infused rats on high-fat diet; assay type: functional

T1 sequence (Q99705 whole entry): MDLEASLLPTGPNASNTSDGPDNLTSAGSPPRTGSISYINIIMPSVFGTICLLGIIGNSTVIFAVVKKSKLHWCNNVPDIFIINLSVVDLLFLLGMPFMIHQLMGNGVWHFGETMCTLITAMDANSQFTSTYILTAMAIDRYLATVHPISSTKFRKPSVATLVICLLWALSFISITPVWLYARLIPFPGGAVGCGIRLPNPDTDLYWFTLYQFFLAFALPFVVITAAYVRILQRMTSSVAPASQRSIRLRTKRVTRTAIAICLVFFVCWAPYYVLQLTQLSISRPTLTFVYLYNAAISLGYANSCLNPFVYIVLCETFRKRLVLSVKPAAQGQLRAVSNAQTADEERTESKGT

Row | SMILES | IC50 [1] | inhibition [2] | EC50 [3] | other results
1 | CCN(CC)c1ccc2cc(NC(=O)CCc3ccc(C(F)(F)F)cc3)ccc2n1 | 88 nM | < 50% | 830 nM | 
2 | O=C(Nc1ccc2nc([N+]34CCC(CC3)CC4)ccc2c1)c1ccc(C(F)(F)F)nc1 |  |  | > 10000 nM | Vd [4]: 3.92 L/kg; half-life [5]: 66 min; inhibition [6]: 20%; clearance [7]: 57 mL/min/kg; inhibition [8]: 30%
3 | O=C(CCc1ccc(C(F)(F)F)cc1)Nc1ccc2nc(N3CCC3)ccc2c1 | 4 nM | < 50% | 56 nM | 
4 | CS(=O)(=O)NC1CCN(c2ccc3cc(NC(=O)CCc4ccc(C(F)(F)F)cc4)ccc3n2)C1 (stereo unspecified) | 3 nM |  | 50 nM | 
5 | CC1CCN(c2ccc3cc(NC(=O)CCc4ccc(C(F)(F)F)cc4)ccc3n2)C1 (stereo unspecified) | 2 nM |  | 400 nM | 
6 | CNc1ccc2cc(NC(=O)CCc3ccc(C(F)(F)F)cc3)ccc2n1 | 20 nM | < 50% | 330 nM | 
7 | O=C(CCc1ccc(C(F)(F)F)cc1)Nc1ccc2nc(N3CCCCCC3)ccc2c1 | 36 nM | < 50% | 1800 nM | 
8 | CN(c1ccc2cc(NC(=O)CCc3ccc(C(F)(F)F)cc3)ccc2n1)C1CCCC1 | 2 nM | < 50% | 350 nM | 
9 | O=C(CCc1ccc(C(F)(F)F)cc1)Nc1ccc2nc(N3CCC(NC(=O)c4ccccc4)C3)ccc2c1 (stereo unspecified) | 10 nM |  | 110 nM | 
10 | O=C(CCc1ccc(C(F)(F)F)cc1)Nc1ccc2nc(N3CC4CC3CN4)ccc2c1 (stereo unspecified) | 210 nM |  | 490 nM | 
11 | O=C(CCc1ccc(C(F)(F)F)cc1)Nc1ccc2nc(N3CC4CCC3CC4)ccc2c1 | 3 nM | < 50% | 190 nM | 
12 | CN(c1ccc2cc(NC(=O)CCc3ccc(C(F)(F)F)cc3)ccc2n1)C1CCCCC1 | 18 nM | < 50% | 1200 nM | 
13 | CN(c1ccccc1)c1ccc2cc(NC(=O)CCc3ccc(C(F)(F)F)cc3)ccc2n1 | 3700 nM | < 50% |  | 
14 | CC(C)C(=O)NC1CCN(c2ccc3cc(NC(=O)CCc4ccc(C(F)(F)F)cc4)ccc3n2)C1 (stereo unspecified) | 1 nM |  | 90 nM | 
15 | CCCN(C)c1ccc2cc(NC(=O)CCc3ccc(C(F)(F)F)cc3)ccc2n1 | 10 nM | < 50% | 140 nM | 
16 | CCCN(CCC)c1ccc2cc(NC(=O)CCc3ccc(C(F)(F)F)cc3)ccc2n1 | 490 nM | < 50% |  | 

Row | SMILES | IC50 [1] | inhibition [2] | EC50 [3] | other results
17 | COC(=O)C1CCCN1c1ccc2cc(NC(=O)CCc3ccc(C(F)(F)F)cc3)ccc2n1 (stereo unspecified) | 800 nM |  | 580 nM | 
18 | O=C(CCc1ccc(C(F)(F)F)cc1)Nc1ccc2nc(N3CC4CC3CO4)ccc2c1 (stereo unspecified) | 13 nM |  | 70 nM | 
19 | O=C(CCc1ccc(C(F)(F)F)cc1)Nc1ccc2nc(N3CCC(c4ccccc4)C3)ccc2c1 (stereo unspecified) | 25 nM |  | 1770 nM | 
20 | CN(C)c1ccc2cc(NC(=O)CCc3ccc(C(F)(F)F)cc3)ccc2n1 | 13 nM | < 50% | 110 nM | 
21 | O=C(CCCCCCCCCCCCc1ccc(C(F)(F)F)cc1)Nc1ccc2nc([N+]34CCC(CC3)CC4)ccc2c1 | 5 nM |  | 25 nM | Vd [4]: 1 L/kg; half-life [5]: 36 min; IC50 [9]: 13 nM; Reduced food intake (Rattus norvegicus): 26%; clearance [7]: 36 mL/min/kg
22 | CC(=O)NC1CCN(c2ccc3cc(NC(=O)CCc4ccc(C(F)(F)F)cc4)ccc3n2)C1 (stereo unspecified) | 5 nM |  | 440 nM | 
23 | O=C(CCc1ccc(C(F)(F)F)cc1)Nc1ccc2nc(N3CC4CCC3C4)ccc2c1 (stereo unspecified) | 1 nM |  | 150 nM | 
24 | NC1CCN(c2ccc3cc(NC(=O)CCc4ccc(C(F)(F)F)cc4)ccc3n2)C1 (stereo unspecified) | 12 nM |  | 200 nM | 
25 | CCCc1cc(N(C)C)c2cc(NC(=O)CCc3ccc(C(F)(F)F)cc3)ccc2n1 | 12 nM |  |  | 
26 | O=C(CCc1ccc(C(F)(F)F)cc1)Nc1ccc2nc(N3CCC4(CCNC4)C3)ccc2c1 (stereo unspecified) | 0.5 nM |  | 140 nM | 
27 | Nc1ccc2cc(NC(=O)CCc3ccc(C(F)(F)F)cc3)ccc2n1 | 240 nM | < 50% | 720 nM | 
28 | CC(C)N(C)c1ccc2cc(NC(=O)CCc3ccc(C(F)(F)F)cc3)ccc2n1 | 2 nM | < 50% | 140 nM | 
29 | O=C(CCc1ccc(C(F)(F)F)cc1)Nc1ccc2nc(N3CCCC3)ccc2c1 | 3 nM | < 50% | 320 nM | EC50 ([3]; hek293): 320 nM
30 | O=C(CCc1ccc(C(F)(F)F)cc1)Nc1ccc2nc(N3CCCCC3)ccc2c1 | 12 nM | < 50% | 110 nM | 
31 | CC1CCCN1c1ccc2cc(NC(=O)CCc3ccc(C(F)(F)F)cc3)ccc2n1 (stereo unspecified) | 5 nM |  | 270 nM | 
32 | CNC(=O)NC1CCN(c2ccc3cc(NC(=O)CCc4ccc(C(F)(F)F)cc4)ccc3n2)C1 (stereo unspecified) | 6 nM |  | 30 nM | 
